Values belong to the molecule of their own block, whether it stands above or below them.
Key:
[1] = target: T1, short form of the GPR120 receptor (Homo sapiens, UniProt Q5NUL3); assay: Human GPR120 DiscoveRx PathHunter Beta-Arrestin Assay, Procedure β-arrestin B (5000 cells/well); assay type: cell-based
T1 construct: host or cells: PathHunter CHO-K1 GPR120S β-Arrestin Cell Line
T1 sequence (Q5NUL3 1-361): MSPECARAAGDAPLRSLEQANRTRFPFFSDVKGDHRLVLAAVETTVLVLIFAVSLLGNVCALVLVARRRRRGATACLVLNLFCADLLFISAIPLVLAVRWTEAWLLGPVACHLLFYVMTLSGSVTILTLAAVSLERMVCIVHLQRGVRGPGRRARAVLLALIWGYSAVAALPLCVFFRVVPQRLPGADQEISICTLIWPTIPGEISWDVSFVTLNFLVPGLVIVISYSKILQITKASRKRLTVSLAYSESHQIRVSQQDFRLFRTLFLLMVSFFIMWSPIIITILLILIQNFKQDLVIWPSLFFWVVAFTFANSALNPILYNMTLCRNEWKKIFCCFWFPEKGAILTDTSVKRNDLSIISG
From the text: (§1) The binding of an agonist (medium/long chain fatty acids or small molecule agonists) to the G-protein-coupled receptor GPR120 activates phospholipase C, leading to release of intracellular Ca^+2 through the generation of inositol 1,4,5-trisphosphate (InsP3 or IP3). GPR120 activation can also trigger intracellular signaling via recruitment of β-Arrestin. In the present method, agonist-induced activation of the human GPR120 receptor is monitored through the use of PathHunter CHO-K1 GPR120 β-Arrestin Cell Line engineered by DiscoveRx, as detailed below. The cell lines are designed to co-express both the ProLink/Enzyme Donor (PK)-tagged GPCR and the Enzyme Activator (EA)-tagged β-Arrestin fusion proteins. Upon GPR120 receptor stimulation/activation, the EA-tagged β-Arrestin portion is translocated to the tagged receptor, where the two enzyme fragments are brought within close proximity. Under these conditions, these fragments can interact and form an active Beta-gal enzyme complex through Enzyme Fragment Complementation (EFC). This active Beta-gal complex can enzymatically hydrolyse the substrate to produce a detectable light signal; therefore, activation as a function of agonist concentration can be expressed as an EC50 value to determine relative compound activities. This in vitro assay therefore serves to assess compound agonist activity of the GPR120.
In Procedure β-arrestin B the cells used were PathHunter CHO-K1 GPR120S β-Arrestin Cell Line, expressing the short form of the GPR120 receptor (Accession #NM_181745), with 5000 cells/well.
(§2) The selected CHO-K1 GPR120 β-Arrestin cells were cultured in Ham's F12 media supplemented with 10% fetal bovine serum (FBS), 1% Glutamine, 1×p/s, 800 μg/ml G418 and 300 μg/ml Hygromycin B (for selection). Cell stocks were maintained and grown in a sub-confluent state using standard cell culture procedures. The day before the experiment, the cells were harvested with non-enzymatic cell dissociation buffer and re-suspended in complete growth media at the desired concentration. A Corning 384-plate was then seeded with the proper number of cells in a volume of 25 μL, per well. The seeded plates were incubated overnight at 37° C.
(§3) On the day of the experiment, the Assay Buffer containing (a) HBSS with Ca^++ and Mg^++, (b) 20 mM HEPES, and (c) 0.1% BSA stabilizer (pH 7.4) was prepared. The growth medium was gently removed from the cell plates and 20 μL of Assay Buffer added to each well. The plate was then incubated at 37° C. for 60 mins. Test compounds were serially diluted in Assay Buffer to desired concentrations (more particularly, to one or more of the following μM concentrations: 25 μM, 12.5 μM, 6.25 μM, 3.125 μM, 1.562 μM, 0.781 μM, 0.391 μM, 0.195 μM, 0.098 μM, 0.049 μM, 0.024 μM, 0.012 μM). Five μl of compound dilution was then added to each well and the plate incubated at 37° C. for 90 mins. The detection reagents were prepared according to the manufacture's instruction. Twelve μL of the detection reagents were added to each well and the plate incubated at room temperature for 60 mins.
(§4) The plates were read on an EnVision instrument, using Protocol name: Luminescence, Plate type: 384 Costar, Measurement height: 3 mm, Measurement time: 1 s, Aperture: 384 Plate aperture. The % activity relative to the positive control was calculated using the following equation:
(§5) The % Activity values were plotted versus the concentration of test compound and fitted to a sigmoidal dose-response curve with a Hill slope=1 (fixed value) using nonlinear regression with GraphPad Prism 5.0 to calculate the EC50 values. The Fitting Equation was: Y=Bottom+(Top−Bottom)/(1+10^((LogEC50−X)*HillSlope)), where X is the log of the concentration and Y is the response.

[2] = target: T2, Human GPR120 short form (Homo sapiens, UniProt Q5NUL3); assay: Human GPR120 in Calcium Flux Assay, Procedure Calcium B (4200 cells/well); assay type: cell-based
T2 construct: expressed in transfected cells
T2 sequence (Q5NUL3 1-361): T1 sequence (Q5NUL3 1-361)
From the text: This in vitro assay serves to assess test compound agonist activity against the short splice variant (SVS with Accession number NM_001195755.1 confirmed by sequencing data) of the GPR120 receptor. The Human Short splice variant #2 (NM_001195755.1) is missing an in-frame coding exon compared to variant 1 (the Human Long splice variant NM_181745.3), resulting in a shorter isoform (GPR120-S) lacking a 16 aa protein segment compared to isoform GPR120-L. The assay platform utilizes HEK-293 cells stably transfected to express the Human GPR120 short form. These cells are first loaded with the Ca^+2 sensitive dye, Fluo-4 NW. Upon stimulation, intracellular released Ca^+2 can bind to the dye and alter its fluorescence intensity. This increase in fluorescence signal, and thus the flux in intracellular [Ca^+2], is detected and quantitated by fluorescence imaging using a FLIPR reader. The effect of the agonist is measured as a function of concentration and used to calculate an EC50 based upon a response curve.
In this procedure 4200 cells/well were employed.
A Human GPR120 clone (Genbank accession number NM_001195755.1) was placed into the pcDNA3.1 mammalian expression vector carrying the neomycin resistance gene. A stable mammalian cell was generated by placing the above clone into a HEK293 background. Clonal cells responding to long chain fatty acids had expression levels of GPR120 confirmed by RT-qPCR. Human HEK-GPR120 cells were cultured in Dulbecco's Modified Eagle's Medium (DMEM)/F12 medium supplemented with 10% fetal bovine serum (FBS), 1% L-Glutamine and 1% penicillin/streptomycin and 0.5 mg/ml G-418. Cells were split 2 times a week to keep the cells in the log-phase growth.
In preparation for the assay, HEK cells stably transfected with Human GPR120 (2.5K cells per well in 25 uL growth medium) were seeded into 384-well plates and then incubated overnight (37° C., 5% CO2). The next day, the media was changed to 20 μl assay buffer and the cell starved for 1 h at 37° C. The dye loading solution (2× dye) was prepared using 10 ml assay buffer, 100 μl of 250 mM probenecid, 1 bottle of Component A, and 20 μl of dye in DMSO. Twenty μl of the 2× dye loading buffer was then added to each well. The plates were incubated at 37° C. for 30 min, then at room temperature for an additional 15 minutes, before performing the assay on FLIPR.
Test compounds were prepared in assay buffer (2 μl of test compound+198 μl assay buffer, final DMSO in assay plate is 0.2%) at the desired concentration, more particularly at 100 μM, 50 μM, 25 μM, 12.5 μM, 6.25 μM, 3.125 μM, 1.562 μM, 0.781 μM, 0.391 μM, 0.195 μM, 0.098 μM, 0.049 μM, 0.024 μM and 0.012 μM.
The assay was performed on a FLIPR plate reader using the following parameters. Baseline was read for 10 seconds at 1 sec intervals. The program was set to transfer 10 μL of ligand from compound plate to cell plate after baseline reading. Aspiration was executed at: 10 μl/sec speed, 4.6 μl height; Dispensing was executed at: 30 μl/sec speed, 45 μl height. After compound addition, each well was read for 300 sec, with measurements collected at 1 sec intervals.
The kinetic data from the FLIPR was based upon a 5 minute window for data collection. The fluorescence of each sample well was used for individual calculations of a normalized RFU value, which was defined as maximum response minus the minimum response. The normalized fluorescence reading (RFU) was calculated as follows: RFU=Fmax−Fmin
The data were fitted to a sigmoidal dose-response curve with a variable Hill slope (<2) using nonlinear regression with GraphPad Prism 5.0 to calculate the EC50 values. The Fitting Equation was: Y=Bottom+(Top−Bottom)/(1+10^((LogEC50−X)*HillSlope)), where X is the log of the concentration and Y is the response.

[3] = target: T3, long form of human GPR120 (Homo sapiens, UniProt Q5NUL3); assay: Human GPR120 DiscoveRx PathHunter Beta-Arrestin Assay, Procedure β-arrestin A (3000 cells per well); assay type: cell-based; conditions: read-out: GPR120 B-arrestin A EC50
T3 construct: host or cells: PathHunter CHO-K1 GPR120 β-Arrestin Cell Line
T3 sequence (Q5NUL3 1-377 isoform Q5NUL3-1): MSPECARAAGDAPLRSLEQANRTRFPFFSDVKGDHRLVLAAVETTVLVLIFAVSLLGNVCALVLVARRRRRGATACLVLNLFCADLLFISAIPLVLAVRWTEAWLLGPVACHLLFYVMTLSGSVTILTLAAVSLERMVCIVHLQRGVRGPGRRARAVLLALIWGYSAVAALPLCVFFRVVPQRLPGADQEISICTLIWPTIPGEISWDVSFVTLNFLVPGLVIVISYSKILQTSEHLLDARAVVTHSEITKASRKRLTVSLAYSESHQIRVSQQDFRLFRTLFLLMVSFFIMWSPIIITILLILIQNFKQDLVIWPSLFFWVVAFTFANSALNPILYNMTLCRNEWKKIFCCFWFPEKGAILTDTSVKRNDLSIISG
From the text: as §1
In Procedure β-arrestin A, the cell used were PathHunter CHO-K1 GPR120 β-Arrestin Cell Line, expressing the long form of human GPR120 (Genbank accession number NM_181745), with 3000 cells per well.
as §2, §3, §4, §5

[4] = system: C57bl/6J Mice; assay: C57bl6 mouse OGTT; assay type: in vivo
Description: Male, C57bl/6J Mice were ordered in at 8 weeks of age from Jackson Labs. Individual mice weighed anywhere in the range of 25-30 grams on study day. The mice were fasted, with removal of food occurring at 7 am on the morning of the study. Animals were moved into the room at 10:00 am, to give them time to acclimate. Glucose (insulin syringes) was drawn up either the night before or the morning of the study. Glucose was dosed (IP) at 1.5 g/kg at 7.5 ml/kg (20% glucose straight TEKNOVA, 250 ml sterile bottle w/catalogue number G0525). Test compounds were kept spinning and were only drawn into the syringes prior to study commencement. Animals were bled via tail snip to determine basal glucose levels prior to dosing of treatments. An Ascensia BREEZE Blood Glucose Monitoring System by Bayer (using unique 10-test disks) was used for determining glucose levels. The bleeds started at approximately 12:45 pm and dosing started, at 1-minute intervals, immediately after. All groups were dosed 30 minutes prior to glucose administration at a dose volume of 10 ml/kg (the dose volume was calculated separately for each individual animal). Thirty minutes after the first dose animals were bled again for a second baseline, or T=0, and immediately dosed with glucose via an i.p. injection. The exact dose volume for glucose was also calculated separately for each individual animal. Glucose measurements were taken at −30 min prior to compound dose, at t=0 (immediately prior to glucose dose), and at 15, 30, 45, 60, 90 min post glucose dose.
Glucose values were entered into an Excel sheet and graphed in GraphPad Prism. The following were calculated from Prism: Change from −30 to 0 BSLN Glucose, Raw Glucose AUC −30 to 90 min, Delta Glucose AUC −30 to 90 min, Raw Glucose AUC 0 to 90 min, Delta Glucose AUC 0 to 90 min.
The assay design is the same as that described above for the C57bl6 mouse IPGTT. The difference is that glucose was dosed PO at 3 g/kg, 7.5 ml/kg of 40% glucose.

SMILES: Cc1c(CCC(=O)O)ccc(OCc2cc(Cl)cc3sc(CC(C)C)nc23)c1C [Compound 110, 3-(4-{[6-Chloro-2-(2-methylpropyl)-1,3-benzothiazol-4-yl]methoxy}-2,3-dimethylphenyl)propanoic acid]
EC50 [1]: 3310 nM | EC50 [2]: 949 nM

SMILES: CCCc1cc2cc(F)cc(COc3ccc(CCC(=O)O)c(C)c3C)c2o1 [Compound 13, 3-{4-[(5-Fluoro-2-propyl-1-benzofuran-7-yl)methoxy]-2,3-dimethylphenyl}propanoic acid]
EC50 [3]: 302 nM | Dose Responses C57 OGTT ([4]; 3 mg/kg): −16% | Dose Responses C57 OGTT ([4]; 10 mg/kg): −16%

SMILES: CCc1nc2c(COc3ccc(CCC(=O)O)c(C)c3C)cc(Cl)cc2s1 [Compound 109, 3-{4-[(6-Chloro-2-ethyl-1,3-benzothiazol-4-yl)methoxy]-2,3-dimethylphenyl}propanoic acid]
EC50 [1]: 191 nM | EC50 [2]: 38 nM

SMILES: Cc1cc2cc(Cl)c(CCCS(C)(=O)=O)c(COc3ccc(CCC(=O)O)c(C)c3C)c2o1 [Compound 108, 3-[4-({5-Chloro-2-methyl-6-[3-(methylsulfonyl)propyl]-1-benzofuran-7-yl}methoxy)-2,3-dimethylphenyl]propanoic acid]
EC50 [2]: 2740 nM

Continued, values first:

EC50 [1]: 882 nM | EC50 [2]: 184 nM
SMILES: Cc1c(CCC(=O)O)ccc(OCc2cc(Cl)cc3sc(C(C)C)nc23)c1C [Compound 106, 3-(4-{[6-chloro-2-(1-methylethyl)-1,3-benzothiazol-4-yl]methoxy}-2,3-dimethylphenyl)propanoic acid]

EC50 [1]: 299 nM | EC50 [2]: 107 nM
SMILES: Cc1c(CCC(=O)O)ccc(OCc2cc(F)cc3sc(C(C)C)nc23)c1C [Compound 111, 3-(4-{[6-Fluoro-2-(1-methylethyl)-1,3-benzothiazol-4-yl]methoxy}-2,3-dimethylphenyl)propanoic acid]

EC50 [1]: 3920 nM | EC50 [2]: 1010 nM
SMILES: Cc1c(CCC(=O)O)ccc(OCc2cc(F)cc3sc(C(C)(C)C)nc23)c1C [Compound 107, 3-{4-[(2-tert-butyl-6-fluoro-1,3-benzothiazol-4-yl)methoxy]-2,3-dimethylphenyl}propanoic acid]
